We go through nine compounds from US9951373B2, “Oplophorus-derived luciferases, novel coelenterazine substrates, and methods of use” (Promega Corporation, priority 2010, dated 2018).

Data set [1] has as its target T1, red click beetle luciferase and OgLuc variant 9B8 opt (Oplophorus gracilirostris, UniProt Q9GV45, A31E/A60K/A81I/F95Y/I117V/L99Q/M102K/N193R/P142E/Q151K/Q38R/Q45L/V71I/Y165I).
T1 construct: The IV-based variants were generated in a pF4Ag vector background without HT7; made in house; host or cells: E. coli (crude lysate, diluted 1000-fold)
Put plainly: Multiplexing with red click beetle luciferase, modified DUAL-GLO assay. The class given is biochemical. The conditions noted are these: 9B8 opt, STOP&GLO Reagent with 20 μM of the substrate. The protocol: (§1) A. Lysates of E. coli expressing the variant 9B8 opt were prepared as previously described in Example 27 and diluted 1000-fold in DMEM without phenol red+0.1% PRIONEX®. Luminescence from a sample containing 6.3 μg/mL of purified red click beetle luciferase and E. coli lysate expressing the variant 9B8 opt was detected using a modified DUAL-GLO® Luciferase Assay System (Promega Corp.). DUAL-GLO® STOP&GLO® Reagent containing 20 μM coelenterazine-h and DUAL-GLO® STOP&GLO® Reagent containing 20 μM PBI 3939 were used, according to the manufacturer's protocol, to detect the red click beetle luciferase and OgLuc variant 9B8 luciferase from a single sample. Three replicates were performed.
(§2) Luminescence was detected on a Turner MODULUS™ luminometer. […] The standard deviation (“+/−”) and coefficient of variance (“CV”) are also shown. A “no coelenterazine” control was performed to illustrate the amount of quenching of the red click beetle signal by the DUAL-GLO® STOP&GLO® Reagent of the DUAL-GLO® Luciferase Assay System in the absence of coelenterazine. The “no coelenterazine” control yielded a 349-fold quench.

For data set [2], the system named is red click beetle luciferase and OgLuc variant 9B8 opt. Described as above. The class given is biochemical. The conditions noted are these: first step, red click beetle luciferase signal. As for the experimental part: as §1, §2
Data set [3] relates to HEK293 cells. Put plainly: Live cell luminescence with PBI-3939. Format: cell-based, human. To be noted: cells in culture, 60 μM. As for the experimental part:
A. The use of OgLuc variants and PBI-3939 in live cells was examined HEK293 cells were plated in 96-well plates at 15,000 cells/well and grown overnight at 37° C. The following day, the cells were transiently transfected using TRANSIT®-LT1 in 3 replicates with 100 ng of hRL or 9B8 opt in pF4Ag and grown overnight at 37° C. The following day the growth media was removed and replaced with media containing 60 μM VIVIREN™ Live Cell Substrate (Promega Corp.), 60 μM ENDUREN™ Live Cell Substrate (Promega Corp.), or 60 μM PBI-3939 for both hRL and 9B8 opt transfected cells. Non-transfected cells were used as background control. The plate was incubated at 37° C. during the course of one day and periodically measured on a TECAN® GENIOS™ Pro luminometer, i.e., 11 times over the course of 24 hrs.

Data set [4] has as its system HEK293 cells.
The nature of data set [5]: Stability of coelenterazines in reporter reagent buffer (T90). To be noted: time for luminescent signal to decay by 10% at 22° C. in reporter reagent buffer; read with IV lysate.
Data set [6] deals with T2, OgLuc variant 9B8 (Oplophorus gracilirostris, UniProt Q9GV45, A31E/A60K/A81I/F95Y/I117V/L99Q/M102K/N193R/P142E/Q151K/Q38R/Q45L/V71I/Y165I).
T2 construct: The IV-based variants were generated in a pF4Ag vector background without HT7; made in house; host or cells: E. coli (crude lysate)
T2 sequence (Q9GV45 other isoform, or with tags, fused parts or gaps with the stated changes): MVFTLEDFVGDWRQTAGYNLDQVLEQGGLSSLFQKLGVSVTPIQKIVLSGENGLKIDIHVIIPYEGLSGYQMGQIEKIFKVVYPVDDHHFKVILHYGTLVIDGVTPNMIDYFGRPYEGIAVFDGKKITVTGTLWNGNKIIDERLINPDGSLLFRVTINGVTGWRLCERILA
Description: LOPAC library inhibition screen. The conditions noted are these: preliminary LOPAC screen, 9B8, 20 μM substrate. The class given is biochemical. As for the experimental part: To determine the susceptibility of the OgLuc variants to off-target interactions, the activity of the 9B8 and L27V variants was screened against a LOPAC (library of pharmacologically active compounds) library. A LOPAC 1280 library (Sigma) was prepared by diluting the compounds to 1 mM in DMSO. On the day of the assay, the compounds were diluted to 20 μM in 1×PBS, and 10 μL transferred to a 96-well, white plate. To each well, 10 μL of purified 9B8, L27V or firefly luciferase (Luc2) enzyme diluted 10^−4 in Glo Lysis Buffer (Promega Corp.) was added and incubated at room temperature for 2 min. […] For assaying firefly luciferase, the BRIGHT-GLO™ Assay reagent (Promega Corp.) was used according to the manufacturer's protocol. As a negative control, 8 wells of each plate contained 1×PBS+2% glycerol. As a positive control, 8 wells of each plate contained 2 mM Suramin in 2% DMSO or 2 mM luciferase inhibitor 1 in 2% DMSO (Calbiochem).

Like-named read-outs stand apart in the source and are kept apart here.

T1 sequence (Q9GV45 other isoform, or with tags, fused parts or gaps with the stated changes): as above

With `O=c1c(Cc2cccs2)nc2c(Cc3ccccc3)[nH]c(-c3ccccc3)cn1-2` [PBI-3889, 8-benzyl-6-phenyl-2-(thiophen-2-ylmethyl)imidazo[1,2-a]pyrazin-3(7H)-one], the “Stability (pH 8) (T90 in hrs)” value worked out at 2.9 hrs.

With `Cc1[nH]c(-c2ccccc2)cn2c(=O)c(Cc3ccc(O)cc3)nc1-2` [PBI-3896, 2-(4-hydroxybenzyl)-8-methyl-6-phenylimidazo[1,2-a]pyrazin-3(7H)-one], the “Stability (pH 8) (T90 in hrs)” value came out at 2.8 hrs.

`O=c1c(Cc2ccco2)nc2c(Cc3ccccc3)[nH]c(-c3ccccc3)cn1-2` [PBI-3939, 8-benzyl-2-(furan-2-ylmethyl)-6-phenylimidazo[1,2-a]pyrazin-3(7H)-one]: the “Stability (pH 8) (T90 in hrs)” value was found to be 4.1 hrs. Also, the “Ogluc (average luminescence)” value in data set [1] is recorded as 2,996,940. The “click beetle (average luminescence)” value in data set [2] is recorded as 5,078,547. Moreover, the cell permeability result in data set [3] was “can permeate cells in culture”. Further, the “biocompatibility in terms of cell viability” value in data set [4] was “comparable biocompatibility to native coelenterazine”.

As for `O=c1c(Cc2ccco2)nc2c(Cc3ccccc3)[nH]c(-c3ccc(O)cc3)cn1-2` [PBI-3945], the “Stability (pH 8) (T90 in hrs)” value in data set [5] turned out to be 3.3 hrs.

Regarding `O=c1c(Cc2cccs2)nc2c(Cc3ccccc3)[nH]c(-c3ccc(O)cc3)cn1-2` [PBI-4002], the “Stability (pH 8) (T90 in hrs)” value in data set [5] was 3.5 hrs.

`Cc1ccc(C(=O)Nc2ccc(S(=O)(=O)O)c3cc(S(=O)(=O)O)cc(S(=O)(=O)O)c23)cc1NC(=O)c1cccc(NC(=O)Nc2cccc(C(=O)Nc3cc(C(=O)Nc4ccc(S(=O)(=O)O)c5cc(S(=O)(=O)O)cc(S(=O)(=O)O)c45)ccc3C)c2)c1` [Suramin]: the “inhibition of OgLuc” value in data set [6] is “inhibitor of OgLuc”.

For `O=c1c(Cc2ccccc2)nc2c(Cc3ccccc3)[nH]c(-c3ccccc3)cn1-2` [coelenterazine-hh, bisdeoxycoelenterazine, reference compound], the “Stability (pH 8) (T90 in hrs)” value in data set [5] is reported as 2.0 hrs.

With `Oc1ccc(Cc2nc3c(Cc4ccccc4)nc(-c4ccc(O)cc4)cn3c2O)cc1` [native coelenterazine, coelenterazine], the “Stability (pH 8) (T90 in hrs)” value is reported as 1.7 hrs.

For coelenterazine-h [reference compound], the “Ogluc (average luminescence)” value in data set [1] was 921,440. For the same compound, in data set [2], the “click beetle (average luminescence)” value is recorded as 5,082,100. For the same compound, in data set [5], the “Stability (pH 8) (T90 in hrs)” value stood at 2.1 hrs.
